Experimental data reported in the supplement of paper PMC10883282.

How the values were obtained:
[1] = system: HT1080; assay: relative viability vs DMSO control (72 h) (fraction); higher = more viable cells
Method in brief: (§1)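 A 5 µM positive control and 0.1% DMSO vehicle ran alongside sarcoma cell lines seeded in 384-well plates to reach 80–90% confluence. Serially diluted compound, 2.5 µl from source plates of 10 mM to 0.0002 mM, was added after 24 h, and the plates were held 72 h at 37 °C, 5% CO2. Relative viability was worked out from ATPLite readings as percent growth averaged over up to triplicate wells. The values were rescaled so that 1 is full and 0 is none.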

[2] = system: KHOS-NP; assay: as above
Method in brief: as §1

[3] = system: RD-ES; assay: as above
Method in brief: as §1

[4] = system: SW684; assay: as above
Method in brief: as §1

[5] = system: SYO-1; assay: as above
Method in brief: as §1

[6] = system: A204; assay: standardised AUC of viability dose-response curve (72 h) (fraction (0-1)); higher = less growth inhibition (more resistant)
Method in brief: (§2)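 After 72 h with 2.5 µl of compound (compound-plate series 10 mM to 0.0002 mM), triplicate wells of sarcoma cell lines in 384-well plates were read with ATPLite, with viability scaled 1 (full) to 0 (none) and fitted with a four-parameter log-logistic model. The values give the standardised area under the dose-response curve in log-dose space from a modified drexplorer computeAUC. A value of 1 means no response and 0 means full response.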

[7] = system: G401; assay: as above
Method in brief: as §2

[8] = system: HS729; assay: as above
Method in brief: as §2

[9] = system: HT1080; assay: as above
Method in brief: as §2

[10] = system: KHOS-240S; assay: as above
Method in brief: as §2

[11] = system: KHOS-NP; assay: as above
Method in brief: as §2

[12] = system: MES-SA; assay: as above
Method in brief: as §2

[13] = system: RD-ES; assay: as above
Method in brief: as §2

[14] = system: RD; assay: as above
Method in brief: as §2

[15] = system: SK-ES-1; assay: as above
Method in brief: as §2

[16] = system: SK-LMS-1; assay: as above
Method in brief: as §2

[17] = system: SW1353; assay: as above
Method in brief: as §2

[18] = system: SW684; assay: as above
Method in brief: as §2

[19] = system: SW872; assay: as above
Method in brief: as §2

[20] = system: SW982; assay: as above
Method in brief: as §2

[21] = system: SYO-1; assay: as above
Method in brief: as §2

[22] = system: VA-ES-BJ; assay: as above
Method in brief: as §2

CNC(=O)c1nnc(NC(=O)C2CC2)cc1Nc1cccc(-c2ncn(C)n2)c1OC
relative viability
Conditions	[1]	[2]	[3]	[4]	[5]
0.00017 µM	1.07	1.07	0.987	1.16	0.958
0.00051 µM	1.04	1.08	1.019	1.15	0.969
0.00152 µM	1.05	1.063	1.01	1.18	0.924
0.00457 µM	1.03	1.06	0.988	1.15	0.937
0.01372 µM	1.02	1.07	1.02	1.17	0.952
0.04115 µM	1.05	1.076	1.02	1.17	0.935
0.1235 µM	1.01	1.08	1.05	1.18	0.924
0.3704 µM	1.042	1.07	1.06	1.2	0.888
1.111 µM	1.1	1.061	1	1.15	0.928
3.333 µM	1.11	1.09	0.998	1.14	0.983
10 µM	0.995	1.05	0.847	1.12	0.918

Conditions	standardised AUC
[6]	0.978
[7]	0.99
[8]	0.956
[9]	0.992
[10]	0.976
[11]	0.993
[12]	0.984
[13]	0.99
[14]	0.983
[15]	0.958
[16]	0.988
[17]	0.986
[18]	0.991
[19]	0.983
[20]	0.983
[21]	0.989
[22]	0.986
